Activity calls are given as the source filed them. Cut-off read from the data, not from the text of the source, for most assays here: actives have a measured Kd and inactives only a lower limit.
Legend:
[1] = biological target: Activin receptor type-2B (Homo sapiens, UniProt Q13705)
[2] = biological target: cAMP-dependent protein kinase type II-alpha regulatory subunit (Homo sapiens, UniProt P13861)
[3] = biological target: Tyrosine-protein kinase SYK (Homo sapiens, UniProt P43405)
[4] = biological target: Ribosomal protein S6 kinase beta-1 (Homo sapiens, UniProt P23443)
[5] = biological target: Ephrin type-A receptor 5 (Homo sapiens, UniProt P54756)
[6] = biological target: T1, Interleukin-1 receptor-associated kinase 3 (Homo sapiens, UniProt Q9Y616)
T1 sequence (Q9Y616 whole entry): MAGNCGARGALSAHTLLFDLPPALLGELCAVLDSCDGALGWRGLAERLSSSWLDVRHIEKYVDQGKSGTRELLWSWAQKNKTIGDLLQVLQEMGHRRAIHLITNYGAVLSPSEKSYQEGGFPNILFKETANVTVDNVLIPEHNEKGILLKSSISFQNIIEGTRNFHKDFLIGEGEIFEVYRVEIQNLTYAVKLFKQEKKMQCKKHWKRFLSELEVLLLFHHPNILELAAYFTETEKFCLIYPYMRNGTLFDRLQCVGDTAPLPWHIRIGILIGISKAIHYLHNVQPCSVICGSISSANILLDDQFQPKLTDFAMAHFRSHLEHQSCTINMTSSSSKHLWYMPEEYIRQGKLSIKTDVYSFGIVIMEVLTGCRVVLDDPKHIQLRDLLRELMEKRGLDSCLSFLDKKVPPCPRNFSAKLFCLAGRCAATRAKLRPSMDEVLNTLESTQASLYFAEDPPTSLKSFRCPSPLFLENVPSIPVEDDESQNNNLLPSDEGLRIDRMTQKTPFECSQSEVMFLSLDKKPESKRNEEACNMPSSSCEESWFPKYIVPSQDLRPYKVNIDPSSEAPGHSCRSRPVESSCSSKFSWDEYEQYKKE

[7] = biological target: T2, Receptor-type tyrosine-protein kinase FLT3 (Homo sapiens, UniProt P36888)
T2 sequence (P36888 whole entry): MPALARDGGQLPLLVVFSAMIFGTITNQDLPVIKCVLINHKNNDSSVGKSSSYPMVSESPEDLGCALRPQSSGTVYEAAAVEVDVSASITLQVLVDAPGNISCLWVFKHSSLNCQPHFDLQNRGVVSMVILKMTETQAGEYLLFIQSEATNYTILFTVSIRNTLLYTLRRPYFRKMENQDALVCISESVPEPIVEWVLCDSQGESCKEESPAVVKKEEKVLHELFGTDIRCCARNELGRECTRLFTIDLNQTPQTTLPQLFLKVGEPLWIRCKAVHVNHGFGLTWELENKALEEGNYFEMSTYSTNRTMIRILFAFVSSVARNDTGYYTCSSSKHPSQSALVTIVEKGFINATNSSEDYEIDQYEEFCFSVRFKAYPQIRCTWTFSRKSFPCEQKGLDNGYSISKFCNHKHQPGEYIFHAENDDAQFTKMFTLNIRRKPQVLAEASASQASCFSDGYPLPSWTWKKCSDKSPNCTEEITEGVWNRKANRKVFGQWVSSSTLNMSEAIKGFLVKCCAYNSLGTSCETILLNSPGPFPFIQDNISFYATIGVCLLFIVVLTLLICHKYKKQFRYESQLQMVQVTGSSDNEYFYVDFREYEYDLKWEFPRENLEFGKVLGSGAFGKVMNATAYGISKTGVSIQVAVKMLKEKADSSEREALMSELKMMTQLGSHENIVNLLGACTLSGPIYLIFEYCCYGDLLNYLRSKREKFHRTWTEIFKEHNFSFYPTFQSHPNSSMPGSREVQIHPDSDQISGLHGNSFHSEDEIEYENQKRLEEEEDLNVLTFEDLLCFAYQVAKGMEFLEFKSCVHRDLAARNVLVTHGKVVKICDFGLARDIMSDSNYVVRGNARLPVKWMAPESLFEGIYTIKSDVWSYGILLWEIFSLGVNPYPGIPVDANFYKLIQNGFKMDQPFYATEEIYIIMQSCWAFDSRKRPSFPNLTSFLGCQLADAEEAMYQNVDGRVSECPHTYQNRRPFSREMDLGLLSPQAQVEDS

[8] = biological target: T3, Serine/threonine-protein kinase TAO1 (Homo sapiens, UniProt Q7L7X3)
T3 sequence (Q7L7X3 whole entry): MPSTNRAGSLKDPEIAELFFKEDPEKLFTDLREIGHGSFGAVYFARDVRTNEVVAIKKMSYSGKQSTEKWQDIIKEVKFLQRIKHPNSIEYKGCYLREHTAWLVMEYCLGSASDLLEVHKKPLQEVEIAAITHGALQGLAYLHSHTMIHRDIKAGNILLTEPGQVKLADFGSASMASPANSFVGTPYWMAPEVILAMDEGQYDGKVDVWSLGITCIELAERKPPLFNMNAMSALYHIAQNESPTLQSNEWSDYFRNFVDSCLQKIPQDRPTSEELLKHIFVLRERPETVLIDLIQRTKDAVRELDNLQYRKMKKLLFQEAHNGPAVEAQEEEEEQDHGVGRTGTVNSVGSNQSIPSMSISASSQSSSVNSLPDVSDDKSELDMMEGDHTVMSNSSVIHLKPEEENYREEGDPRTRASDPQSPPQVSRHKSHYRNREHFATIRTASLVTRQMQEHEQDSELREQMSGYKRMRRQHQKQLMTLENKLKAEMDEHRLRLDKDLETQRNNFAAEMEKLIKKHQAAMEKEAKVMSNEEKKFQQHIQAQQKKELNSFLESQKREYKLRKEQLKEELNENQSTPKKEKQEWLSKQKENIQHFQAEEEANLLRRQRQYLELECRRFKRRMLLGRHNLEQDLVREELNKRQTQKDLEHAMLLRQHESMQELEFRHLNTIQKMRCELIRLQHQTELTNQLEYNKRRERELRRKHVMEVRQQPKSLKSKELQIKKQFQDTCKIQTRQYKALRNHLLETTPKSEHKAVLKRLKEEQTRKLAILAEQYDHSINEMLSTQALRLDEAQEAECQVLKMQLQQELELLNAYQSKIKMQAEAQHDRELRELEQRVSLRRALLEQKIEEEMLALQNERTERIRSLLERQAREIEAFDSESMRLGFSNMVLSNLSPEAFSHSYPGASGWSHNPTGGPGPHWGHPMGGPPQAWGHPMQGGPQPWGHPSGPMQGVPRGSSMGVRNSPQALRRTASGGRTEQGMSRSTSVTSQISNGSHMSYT

[9] = biological target: Inosine-5'-monophosphate dehydrogenase 2 (Homo sapiens, UniProt P12268)
[10] = biological target: Mitogen-activated protein kinase 9 (Homo sapiens, UniProt P45984)
[11] = biological target: 26S proteasome regulatory subunit 6B (Homo sapiens, UniProt P43686)
Note: in the data inactive means no Kd found up to 30 µM.

Sequence of Ribosomal protein S6 kinase beta-1 (P23443 whole entry): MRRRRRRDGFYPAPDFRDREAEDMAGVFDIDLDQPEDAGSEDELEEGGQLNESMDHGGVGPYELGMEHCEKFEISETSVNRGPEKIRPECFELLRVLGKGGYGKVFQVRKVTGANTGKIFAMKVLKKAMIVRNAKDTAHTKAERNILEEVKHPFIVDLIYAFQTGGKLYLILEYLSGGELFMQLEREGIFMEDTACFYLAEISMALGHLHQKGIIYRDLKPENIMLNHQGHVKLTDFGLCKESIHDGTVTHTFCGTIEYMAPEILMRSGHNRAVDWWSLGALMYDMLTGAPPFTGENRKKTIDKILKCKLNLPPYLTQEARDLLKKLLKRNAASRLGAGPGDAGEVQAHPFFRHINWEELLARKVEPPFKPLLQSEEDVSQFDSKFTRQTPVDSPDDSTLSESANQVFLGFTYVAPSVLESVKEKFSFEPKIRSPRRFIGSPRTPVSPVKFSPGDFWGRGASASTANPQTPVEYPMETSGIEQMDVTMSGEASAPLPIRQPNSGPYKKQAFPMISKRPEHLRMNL
Sequence of Activin receptor type-2B (Q13705 whole entry): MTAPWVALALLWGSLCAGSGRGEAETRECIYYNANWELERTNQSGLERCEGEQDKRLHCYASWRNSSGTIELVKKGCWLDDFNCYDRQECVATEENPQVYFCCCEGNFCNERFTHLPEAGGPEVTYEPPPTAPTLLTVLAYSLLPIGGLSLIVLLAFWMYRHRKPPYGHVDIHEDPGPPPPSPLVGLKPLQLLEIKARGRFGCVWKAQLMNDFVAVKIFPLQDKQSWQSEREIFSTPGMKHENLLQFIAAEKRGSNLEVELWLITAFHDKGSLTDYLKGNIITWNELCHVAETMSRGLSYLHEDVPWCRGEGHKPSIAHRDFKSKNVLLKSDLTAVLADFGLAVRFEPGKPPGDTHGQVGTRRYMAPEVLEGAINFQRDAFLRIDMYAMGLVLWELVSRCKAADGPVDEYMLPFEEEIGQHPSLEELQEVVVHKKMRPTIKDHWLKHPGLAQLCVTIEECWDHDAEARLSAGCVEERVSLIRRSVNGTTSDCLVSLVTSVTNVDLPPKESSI
Sequence of cAMP-dependent protein kinase type II-alpha regulatory subunit (P13861 whole entry): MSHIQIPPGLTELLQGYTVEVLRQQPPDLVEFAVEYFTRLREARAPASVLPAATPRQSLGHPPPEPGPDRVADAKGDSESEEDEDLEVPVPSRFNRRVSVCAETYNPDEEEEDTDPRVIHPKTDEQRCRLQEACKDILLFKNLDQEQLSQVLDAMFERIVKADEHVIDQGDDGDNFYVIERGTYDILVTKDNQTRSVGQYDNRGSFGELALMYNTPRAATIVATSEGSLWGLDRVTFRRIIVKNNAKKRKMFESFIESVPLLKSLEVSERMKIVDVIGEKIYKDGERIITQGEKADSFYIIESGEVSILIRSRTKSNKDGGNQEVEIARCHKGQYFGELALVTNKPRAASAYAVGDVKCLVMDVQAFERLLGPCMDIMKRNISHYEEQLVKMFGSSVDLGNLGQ
Sequence of 26S proteasome regulatory subunit 6B (P43686 whole entry): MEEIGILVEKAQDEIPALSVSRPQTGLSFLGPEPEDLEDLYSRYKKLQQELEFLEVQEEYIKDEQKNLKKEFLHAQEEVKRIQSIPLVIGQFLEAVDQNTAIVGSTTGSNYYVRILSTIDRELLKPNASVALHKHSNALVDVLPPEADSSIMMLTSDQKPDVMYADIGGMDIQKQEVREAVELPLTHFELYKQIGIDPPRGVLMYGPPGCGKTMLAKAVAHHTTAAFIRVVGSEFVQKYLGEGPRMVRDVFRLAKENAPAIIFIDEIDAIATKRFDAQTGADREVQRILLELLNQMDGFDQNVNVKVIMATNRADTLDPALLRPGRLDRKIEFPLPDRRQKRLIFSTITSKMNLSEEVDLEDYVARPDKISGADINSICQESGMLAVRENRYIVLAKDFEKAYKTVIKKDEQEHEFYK
Sequence of Mitogen-activated protein kinase 9 (P45984 whole entry): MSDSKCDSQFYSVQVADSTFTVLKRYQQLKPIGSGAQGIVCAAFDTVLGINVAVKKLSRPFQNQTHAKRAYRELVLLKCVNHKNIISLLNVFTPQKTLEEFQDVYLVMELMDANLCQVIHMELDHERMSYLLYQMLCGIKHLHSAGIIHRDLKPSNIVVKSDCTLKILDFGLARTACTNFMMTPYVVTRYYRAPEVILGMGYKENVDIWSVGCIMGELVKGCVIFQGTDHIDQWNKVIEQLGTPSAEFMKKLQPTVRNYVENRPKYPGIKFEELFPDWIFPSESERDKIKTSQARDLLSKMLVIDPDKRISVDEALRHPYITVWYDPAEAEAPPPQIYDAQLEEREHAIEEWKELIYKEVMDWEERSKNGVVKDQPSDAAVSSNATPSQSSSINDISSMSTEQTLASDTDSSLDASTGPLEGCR
Sequence of Ephrin type-A receptor 5 (P54756 whole entry): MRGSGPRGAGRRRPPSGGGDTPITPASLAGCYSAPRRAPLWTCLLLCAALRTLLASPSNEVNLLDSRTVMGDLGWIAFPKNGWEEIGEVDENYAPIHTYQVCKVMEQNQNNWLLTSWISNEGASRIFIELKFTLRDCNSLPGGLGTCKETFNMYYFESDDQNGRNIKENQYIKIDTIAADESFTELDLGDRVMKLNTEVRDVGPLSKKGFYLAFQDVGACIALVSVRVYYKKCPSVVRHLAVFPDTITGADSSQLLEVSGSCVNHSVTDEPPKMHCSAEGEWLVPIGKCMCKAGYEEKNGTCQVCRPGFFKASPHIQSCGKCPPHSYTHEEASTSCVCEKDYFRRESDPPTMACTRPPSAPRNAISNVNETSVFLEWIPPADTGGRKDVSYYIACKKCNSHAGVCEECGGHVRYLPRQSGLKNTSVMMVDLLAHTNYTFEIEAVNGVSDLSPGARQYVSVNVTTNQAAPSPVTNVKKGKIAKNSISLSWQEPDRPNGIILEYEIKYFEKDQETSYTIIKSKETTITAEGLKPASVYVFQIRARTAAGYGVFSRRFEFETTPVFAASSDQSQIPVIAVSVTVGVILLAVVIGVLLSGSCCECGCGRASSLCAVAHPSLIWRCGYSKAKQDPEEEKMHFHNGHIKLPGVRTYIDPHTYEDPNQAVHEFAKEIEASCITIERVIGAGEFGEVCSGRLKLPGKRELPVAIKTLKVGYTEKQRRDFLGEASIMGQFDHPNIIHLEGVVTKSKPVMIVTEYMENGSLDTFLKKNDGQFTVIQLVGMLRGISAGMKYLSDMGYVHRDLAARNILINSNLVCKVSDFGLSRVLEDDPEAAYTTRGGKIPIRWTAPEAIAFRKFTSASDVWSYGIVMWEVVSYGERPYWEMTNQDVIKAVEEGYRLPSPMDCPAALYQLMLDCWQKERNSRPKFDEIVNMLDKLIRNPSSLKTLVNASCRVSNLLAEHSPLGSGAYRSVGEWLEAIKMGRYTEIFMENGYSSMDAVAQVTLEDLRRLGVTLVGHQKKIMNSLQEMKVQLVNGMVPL

SMILES	Kd [1]	Kd [2]	Kd [3]	Kd [4]	Kd [5]	Kd [6]	Kd [7]	Kd [8]	Kd [9]	Kd [10]	Kd [11]
Cc1cc(-c2cc(O)ccc2Cl)cc2nnc(Nc3ccc(OCCN4CCCC4)cc3)nc12	> 30 µM (inactive)	> 30 µM (inactive)	> 30 µM (inactive)	> 30 µM (inactive)	0.0004 µM (active)	> 30 µM (inactive)	> 30 µM (inactive)	> 30 µM (inactive)	> 30 µM (inactive)	> 30 µM (inactive)	> 30 µM (inactive)
COc1cc(CCc2cc(NC(=O)c3ccc(N4C[C@@H](C)N[C@@H](C)C4)cc3)n[nH]2)cc(OC)c1 [AZD-4547]	> 30 µM (inactive)	> 30 µM (inactive)	> 30 µM (inactive)	> 30 µM (inactive)	> 30 µM (inactive)	> 30 µM (inactive)	> 30 µM (inactive)	> 30 µM (inactive)	> 30 µM (inactive)	> 30 µM (inactive)	> 30 µM (inactive)
Cc1cc([C@@H](C)Nc2ccccc2C(=O)O)c2nc(N3CCOCC3)cc(=O)n2c1 [AZD-6482]	> 30 µM (inactive)	> 30 µM (inactive)	> 30 µM (inactive)	> 30 µM (inactive)	> 30 µM (inactive)	> 30 µM (inactive)	> 30 µM (inactive)	> 30 µM (inactive)	> 30 µM (inactive)	> 30 µM (inactive)	> 30 µM (inactive)
